Laboratory results taken from US12466840B2, “Small molecule inhibitors of KRAS proteins” (Merck Sharp & Dohme LLC, priority 2023, dated 2025).
Like-named read-outs stand apart in the source and are kept apart here. Values belong to the compound of their own block, whether it stands above or below them.

Experiments:
[1] = Rat IV/PO pharmacokinetic studies; assay type: in vivo; details: for F % / bioavailability: oral bioavailability, PO 2 mg/kg vs. IV 1 mg/kg; for CLp / MRT / Vd / clearance / bioavailability: plasma; for CLp / MRT / Vd / clearance: IV 1 mg/kg; for clearance: read-out: CLp
Method: Procedure for Rat IV/PO Pharmacokinetic Studies
Plasma pharmacokinetic parameters for clearance, volume of distribution, half-life and oral bioavailability were determined in rats from oral administration and IV administration studies. 4 male rats, typically weighing 225-260 g, were fasted overnight prior to dosing. IV formulation was administered to 2 rats via pre-cannulated jugular vein, and oral dosing was administered to 2 rats via oral gavage. Blood was collected by pre-cannulated artery, typically at predose, 2, 8, 15, 30 min, 1, 2, 4, 6, and 8 hr postdose for IV, and at predose, 15, 30 min, 1, 2, 4, 6, 8 h for oral dosing. Samples were collected in K2EDTA tubes, stored on ice, and centrifuged. Plasma was transferred to a micro titer plate and stored at −70° C. until analysis. Plasma samples were extracted using protein precipitation and analyzed by liquid chromatography separation followed by mass spec detection (LC-MS/MS), using a standard curve for each compound. Plasma pharmacokinetic parameters were calculated for IV and oral dosing data by non-compartmental methods. Oral bioavailability was determined as the ratio of the dose-normalized plasma area under the curve (AUC) following oral dosing vs. IV dosing.

[2] = Dog IV/PO pharmacokinetic studies; assay type: in vivo; details: for F % / bioavailability: oral bioavailability, PO 0.5 mg/kg vs. IV; for CLp / MRT / Vd / clearance / bioavailability: plasma; for CLp / MRT / Vd / clearance: IV 0.25 mg/kg (Ex-2 0.05 mg/kg); for clearance: read-out: CLp
Method: Procedure for Dog IV/PO Pharmacokinetic Studies
Plasma pharmacokinetic parameters for clearance, volume of distribution, half-life, mean residence time (MRT) and oral bioavailability were determined in dogs from oral administration and IV administration studies. 4 male dogs, typically weighing 8-12 kg, were fasted overnight prior to dosing. IV formulation was administered to 2 dogs via the saphenous or cephalic vein, and oral dosing was administered to 2 dogs via oral gavage. Blood was collected by the cephalic or jugular vein, typically at predose, 2, 8, 15, 30 min, 1, 2, 4, 6, 8 and 24 h postdose for IV, and at predose, 15, 30 min, 1, 2, 4, 6, 8, and 24 hr for oral dosing. Samples were collected in K2EDTA tubes, stored on ice, and centrifuged. Plasma was transferred to a micro titer plate and stored at −70° C. until analysis. Plasma samples were extracted using protein precipitation and analyzed by liquid chromatography separation followed by mass spec detection (LC-MS/MS), using a standard curve for each compound. Plasma pharmacokinetic parameters were calculated for IV and oral dosing data by non-compartmental methods. Oral bioavailability was determined as the ratio of the dose-normalized plasma area under the curve (AUC) following oral dosing vs. IV dosing.

[3] = system: MKN-1 cells (amplified wild-type KRAS); assay: Cellular phospho-ERK assay, MKN-1 cells; assay type: cell-based; details: 2 h, p-ERK vs. total ERK, read-out: MKN1 pERK IC50
Method: Procedure for Cellular Phospho-ERK Assay in KRAS Wild Type and Mutant (G12D, G12V) Cell Lines
MKN-1 cells (JCRB JCRB0252) containing amplified wild-type KRAS, were cultured in growth medium that contains RPMI 1640-GlutaMAX™-I (ThermoFisher Scientific 61870) containing 10% heat inactivated fetal bovine serum (ThermoFisher Scientific 10091148), 1 mM sodium pyruvate and 10 mM HEPES. AsPC-1 cells (ATCC® CRL-1682™), containing homozygous KRAS-G12D activating mutation, were cultured in T150 flask in growth medium (RPMI medium 1640-GlutaMAX™-I (ThermoFisher Scientific 61870) containing 10% fetal bovine serum (ThermoFisher Scientific 10091148)). SW620 cells (ATCC® CRL-227™) containing homozygous KRAS-G12V activating mutation, were cultured in growth medium that contains RPMI 1640-GlutaMAX™-I (ThermoFisher Scientific 61870) containing 10% heat inactivated fetal bovine serum (ThermoFisher Scientific 10091148).
Cells for the assay were harvested in growth medium after TrypLE (ThermoFisher scientific 12604021) digestion and were seeded in a 384-well collagen coated cell culture plate (Corning 356702) at a density of 10,000-15,000 cells/[…]/well, and incubated at 37° C., 5% CO2 overnight. The compound (with 10 mM stock concentration) dose-response titrations were prepared [30 μM final ERK detection assay concentration and 1:3 dilutions, 10-point dose response] and appropriate amounts (270 nL) of test compounds were dispensed in a 384-well intermediate plate using an Echo 550 liquid handler. 30 μL/well of RPMI medium 1640-GlutaMAX™-I was added to the intermediate plate and the contents of the intermediate plate (10 μL/well) were then transferred to the 384-well collagen coated cell culture plate, which was incubated at 37° C., 5% CO2 for 2 h. After removal of medium from the collagen coated cell culture plate, cells were lysed in lysis buffer from Alpha SureFire® Ultra™ Multiplex p-ERK and total ERK assay kit (PerkinElmer MPSU-PTERK) containing Halt™ Protease and Phosphatase inhibitor cocktail (ThermoFisher Scientific 78446) at room temperature with constant shaking at 300 rpm for 30 minutes. The cell lysates were then transferred to an OptiPlate-384 plate (PerkinElmer 6005620), and the phosphorylation of ERK (p-ERK) and total ERK levels were detected by Alpha SureFire® Ultra™ Multiplex p-EEK kit and total ERK assay kit (PerkinElmer MPSU-PTERK) following the manufacturer's protocol. Assay plates were read on a EnVision Multimode Plate Reader (PerkinElmer), and the ratio of p-ERK vs. total ERK in each well was used as the final readout. Dose response curves were analyzed using a 4-parameter logistic model to calculate IC50 values using Spotfire software.

[4] = Dog IV cassette pharmacokinetic studies; assay type: in vivo; details: plasma, IV cassette 0.05 mg/kg
Method: Procedure for Dog IV Cassette Pharmacokinetic Studies
Plasma pharmacokinetic parameters for clearance, volume of distribution, half-life, and mean residence time (MRT) were determined in dogs from IV cassette administration studies. 2 male dogs, typically weighing 8-12 kg, were fasted overnight prior to dosing. IV formulation was administered to 2 dogs via the saphenous or cephalic vein. Blood was collected by the cephalic or jugular vein, typically at predose, 2, 8, 15, 30 min, 1, 2, 4, 6, 8 and 24 h postdose. Samples were collected in K2EDTA tubes, stored on ice, and centrifuged. Plasma was transferred to a micro titer plate and stored at −70° C. until analysis. Plasma samples were extracted using protein precipitation and analyzed by liquid chromatography separation followed by mass spec detection (LC-MS/MS), using a standard curve for each compound. Plasma pharmacokinetic parameters were calculated by non-compartmental methods.

IC50 ([3]; Homo sapiens): 6.6 nM
SMILES: CCc1c(F)ccc2cc3[nH]ncc3c(-c3nc4c5c(nc(OC[C@@]67CCCN6C/C(=C\F)C7)nc5c3F)N3CCCOC[C@H]3CO4)c12 [Ex-4, (8aS)-5-(5-ethyl-6-fluoro-1H-benzo[f]indazol-4-yl)-4-fluoro-2-(((S,Z)-2-(fluoromethylene)tetrahydro-1H-pyrrolizin-7a(5H)-yl)methoxy)-8a,9,12,13-tetrahydro-8H,11H-7,10-dioxa-1,3,6,13a-tetraazanaphtho[1,8-ab]heptalene]

IC50 ([3]; Homo sapiens): 4.3 nM
SMILES: F/C=C1\CN2CCC[C@@]2(COc2nc3c4c(nc(-c5c(C6(F)CC6)c(Cl)cc6[nH]ncc56)c(F)c4n2)OC[C@@H]2COCCCN32)C1 [Ex-5, (8aS)-5-(6-chloro-5-(1-fluorocyclopropyl)-1H-indazol-4-yl)-4-fluoro-2-(((S,Z)-2-(fluoromethylene)tetrahydro-1H-pyrrolizin-7a(5H)-yl)methoxy)-8a,9,12,13-tetrahydro-8H,11H-7,10-dioxa-1,3,6,13a-tetraazanaphtho[1,8-ab]heptalene]

clearance ([1]; male): 36 mL/min/kg | MRT ([1]; male, read-out: MRT): 2.4 h | Vd ([1]; male, read-out: Vd): 5.1 L/kg | bioavailability ([1]; male): 18% | clearance ([2]; male): 8 mL/min/kg | MRT ([2]; male, read-out: MRT): 7.8 h | Vd ([2]; male, read-out: Vd): 3.7 L/kg | bioavailability ([2]; male): 59% | IC50 ([3]; Homo sapiens): 14 nM
SMILES: CCc1c(F)ccc2cc3[nH]nc(C)c3c(-c3nc4c5c(nc(OC[C@@]67CCCN6C[C@H](F)C7)nc5c3F)N3CCCOC[C@H]3CO4)c12 [Ex-6, (8aS)-5-(5-ethyl-6-fluoro-3-methyl-1H-benzo[f]indazol-4-yl)-4-fluoro-2-(((2R,7aS)-2-fluorotetrahydro-1H-pyrrolizin-7a(5H)-yl)methoxy)-8a,9,12,13-tetrahydro-8H,11H-7,10-dioxa-1,3,6,13a-tetraazanaphtho[1,8-ab]heptalene]

More lines, now with the values behind:

SMILES: F/C=C1/CN2CCC[C@@]2(COc2nc3c4c(nc(-c5c(C6CC6)c(Cl)cc6[nH]ncc56)c(F)c4n2)OC[C@@H]2COCCCN32)C1 [Ex-1, (8aS)-5-(6-chloro-5-cyclopropyl-1H-indazol-4-yl)-4-fluoro-2-(((S,Z)-2-(fluoromethylene)tetrahydro-1H-pyrrolizin-7a(5H)-yl)methoxy)-8a,9,12,13-tetrahydro-8H,11H-7,10-dioxa-1,3,6,13a-tetraazanaphtho[1,8-ab]heptalene]
F % [1]: 11% | CLp [1]: 24 mL/min/kg | MRT [1]: 1.4 h | Vd [1]: 2.0 L/kg | F % [2]: 17% | CLp [2]: 5.0 mL/min/kg | MRT [2]: 2.2 h | Vd [2]: 0.65 L/kg | IC50 [3]: 9.1 nM

SMILES: CCc1c(F)ccc2cc3[nH]ncc3c(-c3nc4c5c(nc(OC[C@@]67CCCN6C[C@H](F)C7)nc5c3F)N3CCCOC[C@H]3CO4)c12 [Ex-2, (8aS)-5-(5-ethyl-6-fluoro-1H-benzo[f]indazol-4-yl)-4-fluoro-2-(((2R,7aS)-2-fluorotetrahydro-1H-pyrrolizin-7a(5H)-yl)methoxy)-8a,9,12,13-tetrahydro-8H,11H-7,10-dioxa-1,3,6,13a-tetraazanaphtho[1,8-ab]heptalene]
F % [1]: 10% | CLp [1]: 40 mL/min/kg | MRT [1]: 2.5 h | Vd [1]: 6.1 L/kg | F % [2]: 29% | CLp [2]: 18 mL/min/kg | MRT [2]: 2.4 h | Vd [2]: 2.6 L/kg | IC50 [3]: 7.9 nM

SMILES: Fc1c(-c2c(C3CC3)c(Cl)cc3[nH]ncc23)nc2c3c(nc(OC[C@@]45CCCN4C[C@H](F)C5)nc13)N1CCCOC[C@H]1CO2 [Ex-3, (8aS)-5-(6-chloro-5-cyclopropyl-1H-indazol-4-yl)-4-fluoro-2-(((2R,7aS)-2-fluorotetrahydro-1H-pyrrolizin-7a(5H)-yl)methoxy)-8a,9,12,13-tetrahydro-8H,11H-7,10-dioxa-1,3,6,13a-tetraazanaphtho[1,8-ab]heptalene]
clearance ([1]; male): 40 mL/min/kg | MRT ([1]; male, read-out: MRT): 1.7 h | Vd ([1]; male, read-out: Vd): 4 L/kg | bioavailability ([1]; male): 7.5% | clearance ([2]; male): 10 mL/min/kg | MRT ([2]; male, read-out: MRT): 3.6 h | Vd ([2]; male, read-out: Vd): 2.2 L/kg | bioavailability ([2]; male): 15% | IC50 ([3]; Homo sapiens): 9.7 nM

SMILES: CCc1c(F)ccc2cc3[nH]nc(C)c3c(-c3nc4c5c(nc(OC[C@@]67CCCN6C/C(=C\F)C7)nc5c3F)N3CCCOC[C@H]3CO4)c12 [Ex-7, (8aS)-5-(5-ethyl-6-fluoro-3-methyl-1H-benzo[f]indazol-4-yl)-4-fluoro-2-(((S,Z)-2-(fluoromethylene)tetrahydro-1H-pyrrolizin-7a(5H)-yl)methoxy)-8a,9,12,13-tetrahydro-8H,11H-7,10-dioxa-1,3,6,13a-tetraazanaphtho[1,8-ab]heptalene]
CLp [4]: 7.7 mL/min/kg | MRT [4]: 3.1 h | Vd [4]: 1.4 L/kg | F % [1]: 15% | CLp [1]: 35 mL/min/kg | MRT [1]: 1.9 h | Vd [1]: 4.0 L/kg | IC50 [3]: 12 nM
